According to ChEMBL document CHEMBL2073890, “Multispecific amphipathic substrate transport by an organic anion transporter of human liver” (J Hepatol, 1996):

How the values were obtained:
Format in all cases: functional, cell-based, Oocyte
[1] = biological target: T1, Solute carrier organic anion transporter family member 1A2 (OATP1A2) (Homo sapiens, UniProt P46721); assay: TP_TRANSPORTER: uptake in Xenopus laevis oocytes
T1 sequence (P46721 whole entry): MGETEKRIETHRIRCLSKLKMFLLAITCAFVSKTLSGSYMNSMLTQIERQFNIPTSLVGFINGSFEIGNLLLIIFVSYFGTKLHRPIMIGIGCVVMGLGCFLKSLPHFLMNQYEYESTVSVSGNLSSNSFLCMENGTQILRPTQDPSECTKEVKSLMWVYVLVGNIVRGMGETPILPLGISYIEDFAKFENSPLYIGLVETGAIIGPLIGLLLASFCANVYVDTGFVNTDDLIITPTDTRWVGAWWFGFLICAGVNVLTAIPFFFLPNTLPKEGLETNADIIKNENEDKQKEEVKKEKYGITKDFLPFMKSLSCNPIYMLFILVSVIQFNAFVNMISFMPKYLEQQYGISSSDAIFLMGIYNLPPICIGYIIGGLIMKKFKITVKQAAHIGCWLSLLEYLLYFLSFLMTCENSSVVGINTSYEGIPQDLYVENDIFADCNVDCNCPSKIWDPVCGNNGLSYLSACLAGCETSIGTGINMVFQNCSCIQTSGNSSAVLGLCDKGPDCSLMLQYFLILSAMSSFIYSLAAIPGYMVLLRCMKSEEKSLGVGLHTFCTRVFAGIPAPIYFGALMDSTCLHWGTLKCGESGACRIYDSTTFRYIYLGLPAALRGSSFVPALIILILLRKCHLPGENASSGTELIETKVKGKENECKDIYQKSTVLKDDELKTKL

[2] = biological target: T1, Solute carrier organic anion transporter family member 1A2 (OATP1A2); assay: TP_TRANSPORTER: inhibition of Ouabain uptake (Ouabain: 100 uM, TCDC: 100 uM) in Xenopus laevis oocytes; conditions: probe Ouabain
[3] = biological target: T1, Solute carrier organic anion transporter family member 1A2 (OATP1A2); assay: TP_TRANSPORTER: inhibition of E1S uptake (E1S: 0.2 uM, TCDC: 100 uM) in Xenopus laevis oocytes; conditions: probe E1S (estrone sulfate)

Row | Structure (SMILES) | Km [1] | inhibition at 100 µM [2] | inhibition at 100 µM [3]
1 | C[C@]12CC[C@@H]3c4ccc(OS(=O)(=O)O)cc4CC[C@H]3[C@@H]1CCC2=O [ESTRONE SULFURIC ACID] | 59 µM | – | –
2 | C[C@H](CCC(=O)NCCS(=O)(=O)O)[C@H]1CC[C@H]2[C@@H]3[C@H](O)C[C@@H]4C[C@H](O)CC[C@]4(C)[C@H]3CC[C@]12C [TAUROCHENODEOXYCHOLATE] | – | 100% | 91%
3 | C[C@@H]1O[C@@H](O[C@H]2C[C@@H](O)[C@]3(CO)[C@H]4[C@H](O)C[C@]5(C)[C@@H](C6=CC(=O)OC6)CC[C@]5(O)[C@@H]4CC[C@]3(O)C2)[C@H](O)[C@H](O)[C@H]1O [OUABAIN] | 5500 µM | – | –
